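Where inhibition never reached the appropriate level, the endpoint shown equals the highest concentration tested. Otherwise, values were interpolated linearly from a five-concentration, 48-hour dose response in 96-well plates. At the GI50, growth is halved. TGI marks complete inhibition of growth.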
Assays:
Assay in all cases: DTP human tumour cell line panel, 48 h
[1] = system: KM12 colon
[2] = system: RPMI-8226 leukemia
[3] = system: SK-OV-3 ovarian
[4] = system: SK-MEL-2 melanoma
[5] = system: ACHN renal
[6] = system: NCI/ADR-RES ovarian
[7] = system: MALME-3M melanoma
[8] = system: HCT-116 colon
[9] = system: BT-549 breast
[10] = system: SNB-75 CNS
[11] = system: M14 melanoma
[12] = system: MOLT-4 leukemia
[13] = system: NCI-H522 lung
[14] = system: SF-539 CNS
[15] = system: RXF 393 renal
[16] = system: IGROV1 ovarian
[17] = system: HCT-15 colon
[18] = system: LOX IMVI melanoma
[19] = system: MDA-MB-435
[20] = system: UACC-257 melanoma
[21] = system: OVCAR-8 ovarian
[22] = system: A498 renal
[23] = system: OVCAR-3 ovarian
[24] = system: UO-31 renal
[25] = system: TK-10 renal
[26] = system: HL-60(TB) leukemia
[27] = system: COLO 205 colon
[28] = system: NCI-H23 lung
[29] = system: A549 NSCLC

Cn1cc(-c2nc(N)nnc2-c2c[nH]c3ccc(F)cc23)c2cc(Br)cnc21
GI50 [1]: 50.8 nM | TGI [1]: 13400 nM | GI50 [2]: 403 nM | TGI [2]: > 100000 nM | GI50 [3]: 126 nM | TGI [3]: 19600 nM | GI50 [4]: 87.2 nM | TGI [4]: 13600 nM | GI50 [5]: 91.1 nM | TGI [5]: 15400 nM | GI50 [6]: 155 nM | TGI [6]: 1170 nM | GI50 [7]: 52.5 nM | TGI [7]: 18800 nM | GI50 [8]: 52.1 nM | TGI [8]: 13100 nM | GI50 [9]: 91.8 nM | TGI [9]: 10100 nM | GI50 [10]: 47.4 nM | TGI [10]: 14100 nM | GI50 [11]: 87 nM | TGI [11]: 16200 nM | GI50 [12]: 161 nM | TGI [12]: 14800 nM | GI50 [13]: 19.3 nM | TGI [13]: 231 nM | GI50 [14]: 46.2 nM | TGI [14]: 405 nM | GI50 [15]: 47.1 nM | TGI [15]: 236 nM | GI50 [16]: 72.7 nM | TGI [16]: 14300 nM | GI50 [17]: 52.3 nM | TGI [17]: 11600 nM | GI50 [18]: 63.5 nM | TGI [18]: 14900 nM | GI50 [19]: 26.2 nM | TGI [19]: 78.2 nM | GI50 [20]: 11800 nM | TGI [20]: 25100 nM | GI50 [21]: 192 nM | TGI [21]: 12400 nM | GI50 [22]: 13600 nM | TGI [22]: 27100 nM | GI50 [23]: 53 nM | TGI [23]: 15700 nM | GI50 [24]: 276 nM | TGI [24]: 13200 nM | GI50 [25]: 10600 nM | TGI [25]: 25800 nM | GI50 [26]: 39 nM | TGI [26]: 290 nM | GI50 [27]: 73.7 nM | TGI [27]: 886 nM | GI50 [28]: 198 nM | TGI [28]: 11200 nM | GI50 [29]: 172 nM | TGI [29]: > 48400 nM

From PubChem BioAssay (NCI)
